Assay results reported in PubChem BioAssay AID256 (DTP/NCI, 2004).
Where “and” joins values, the source holds several entries; their conditions need not be identical. Equal values may be shown once. Inconclusive results and toxic doses are left out.

Tested on: CD2F1 mice, L1210 leukemia ip, survival T/C
Experiment: NCI In Vivo Anticancer Drug Screen. Data for tumor model L1210 Leukemia (intraperitoneal) in CD2F1 (CDF1) mice
Conditions: higher = longer survival
Method in brief: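 Each value reflects a quotient of treated over vehicle control outcomes in mice with a transplanted tumor.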

[1] = endpoint: mean survival time, dose: 100.0 mg/kg/injection, schedule: Q01DX009 (ip), vehicle: saline with Tween-80
[2] = endpoint: mean survival time, dose: 200.0 mg/kg/injection, schedule: Q01DX009 (ip), vehicle: saline with Tween-80
[3] = endpoint: mean survival time, dose: 12.5 mg/kg/injection, schedule: Q01DX005 (ip), vehicle: water
[4] = endpoint: mean survival time, dose: 25.0 mg/kg/injection, schedule: Q01DX005 (ip), vehicle: water
[5] = endpoint: mean survival time, dose: 100.0 mg/kg/injection, schedule: Q04DX003 (ip), vehicle: saline with Tween-80
[6] = endpoint: mean survival time, dose: 200.0 mg/kg/injection, schedule: Q04DX003 (ip), vehicle: saline with Tween-80
[7] = endpoint: mean survival time, dose: 400.0 mg/kg/injection, schedule: Q04DX003 (ip), vehicle: saline with Tween-80

With `CCC1=C(C)C(=O)Nc2c3ncnc-3ncn2C1O` (stereo unspecified) the T/C (endpoint: mean survival time, dose: 50.0 mg/kg/injection, schedule: Q01DX009 (ip), vehicle: saline with Tween-80) was 104 % of control, the T/C [1] was 101 % of control and the T/C [2] was 102 % of control.
For `Nc1ncnc2c1c(C(=O)NO)cn2C1OC(CO)C(O)C1O` (stereo unspecified), the T/C (endpoint: mean survival time, dose: 50.0 mg/kg/injection, schedule: Q01DX001 (ip), vehicle: water) was 170 % of control.
With `O=C(O)CCCSc1nn(C2OC(CO)C(O)C2O)c(=O)[nH]c1=O` (stereo unspecified) the T/C [3] was 104 % of control, the T/C [4] was 104 % of control and the T/C (endpoint: mean survival time, dose: 50.0 mg/kg/injection, schedule: Q01DX005 (ip), vehicle: water) was 104 % of control. The T/C (endpoint: mean survival time, dose: 100.0 mg/kg/injection, schedule: Q01DX005 (ip), vehicle: water) was 101 % of control and the T/C (endpoint: mean survival time, dose: 200.0 mg/kg/injection, schedule: Q01DX005 (ip), vehicle: water) was 101 % of control.
With `O=C1C=CC(=O)C(c2cn(C3CC(O)C(CO)O3)c(=O)[nH]c2=O)=C1` (stereo unspecified) the T/C (endpoint: median survival time, dose: 12.5 mg/kg/injection, schedule: Q01DX005 (ip), vehicle: saline with Tween-80) was 111 % of control, the T/C (endpoint: median survival time, dose: 25.0 mg/kg/injection, schedule: Q01DX005 (ip), vehicle: saline with Tween-80) was 111 % of control and the T/C (endpoint: median survival time, dose: 50.0 mg/kg/injection, schedule: Q01DX005 (ip), vehicle: saline with Tween-80) was 108 % of control. The T/C (endpoint: median survival time, dose: 100.0 mg/kg/injection, schedule: Q01DX005 (ip), vehicle: saline with Tween-80) was 121 % of control and the T/C (endpoint: median survival time, dose: 200.0 mg/kg/injection, schedule: Q01DX005 (ip), vehicle: saline with Tween-80) was 105 % of control.
`CSC1SCC2C(=O)N(C)C(C(C)C)C(=O)OCC(NC(=O)c3cnc4ccccc4n3)C(=O)NC(C)C(=O)N(C)C1C(=O)N(C)C(C(C)C)C(=O)OCC(NC(=O)c1cnc3ccccc3n1)C(=O)NC(C)C(=O)N2C` (stereo unspecified) was tested, and the T/C (endpoint: mean survival time, dose: 4.0 micrograms/kg/injection, schedule: Q01DX009 (ip), vehicle: saline) was 105 % of control, the T/C (endpoint: mean survival time, dose: 8.0 micrograms/kg/injection, schedule: Q01DX009 (ip), vehicle: saline) was 107 % of control and the T/C (endpoint: mean survival time, dose: 15.0 micrograms/kg/injection, schedule: Q01DX009 (ip), vehicle: saline) was 102 % of control. For the same molecule, the T/C (endpoint: mean survival time, dose: 16.0 micrograms/kg/injection, schedule: Q01DX009 (ip), vehicle: saline) was 111 % of control, the T/C (endpoint: mean survival time, dose: 30.0 micrograms/kg/injection, schedule: Q01DX009 (ip), vehicle: saline) was 118 % of control and the T/C (endpoint: mean survival time, dose: 32.0 micrograms/kg/injection, schedule: Q01DX009 (ip), vehicle: saline) was 92 % of control. The T/C (endpoint: mean survival time, dose: 60.0 micrograms/kg/injection, schedule: Q01DX009 (ip), vehicle: saline) was 108 % of control, the T/C (endpoint: mean survival time, dose: 120.0 micrograms/kg/injection, schedule: Q01DX009 (ip), vehicle: saline) was 86 % of control and the T/C (endpoint: mean survival time, dose: 192.0 micrograms/kg/injection, schedule: Q01DX009 (ip), vehicle: saline) was 114 % of control. For the same molecule, the T/C (endpoint: median survival time, dose: 67.0 micrograms/kg/injection, schedule: Q01DX005 (ip), vehicle: saline) was 122 % of control, the T/C (endpoint: median survival time, dose: 150.0 micrograms/kg/injection, schedule: Q01DX005 (ip), vehicle: saline) was 120 % of control and 123 % of control and the T/C (endpoint: median survival time, dose: 200.0 micrograms/kg/injection, schedule: Q01DX005 (ip), vehicle: saline) was 106 % of control.
In the case of `CC(C)CC(NC(=O)CN)C(=O)O` (stereo unspecified), the T/C (endpoint: mean survival time, dose: 100.0 mg/kg/injection, schedule: Q04DX002 (ip), vehicle: saline) is reported as 93 % of control, the T/C (endpoint: mean survival time, dose: 200.0 mg/kg/injection, schedule: Q04DX002 (ip), vehicle: saline) is reported as 96 % of control and the T/C (endpoint: mean survival time, dose: 400.0 mg/kg/injection, schedule: Q04DX002 (ip), vehicle: saline) is reported as 107 % of control.
`CC(=O)CC(C)=O.CC(=O)CC(C)=O.CC(=O)CC(C)=O.CC(=O)CC(C)=O.[Hf]` was tested, and the T/C [5] was 86 % of control and the T/C [6] was 94 % of control.
`CC(=O)OCC1OC(n2ccc(O)cc2=O)C(O)C1O` (stereo unspecified) was tested, and the T/C (endpoint: median survival time, dose: 44.0 mg/kg/injection, schedule: Q01DX009 (ip), vehicle: saline + alcohol) was 160 % of control, the T/C (endpoint: median survival time, dose: 67.0 mg/kg/injection, schedule: Q01DX009 (ip), vehicle: saline + alcohol) was 169 % of control and the T/C (endpoint: median survival time, dose: 100.0 mg/kg/injection, schedule: Q01DX009 (ip), vehicle: saline + alcohol) was 172 % of control. The T/C (endpoint: median survival time, dose: 150.0 mg/kg/injection, schedule: Q01DX009 (ip), vehicle: saline + alcohol) was 174 % of control.
With `O=C(CC(O)(C(F)(F)F)C(F)(F)F)c1ccc(Br)cc1` the T/C (endpoint: mean survival time, dose: 100.0 mg/kg/injection, schedule: Q01DX009 (ip), vehicle: other) was 106 % of control, the T/C (endpoint: mean survival time, dose: 200.0 mg/kg/injection, schedule: Q01DX009 (ip), vehicle: other) was 100 % of control and the T/C (endpoint: mean survival time, dose: 400.0 mg/kg/injection, schedule: Q01DX009 (ip), vehicle: other) was 95 % of control.
`CCOC(=O)/C(N=O)=C(/C)O` was tested, and the T/C (endpoint: mean survival time, dose: 100.0 mg/kg/injection, schedule: Q01DX009 (ip), vehicle: saline) was 96 % of control, the T/C (endpoint: mean survival time, dose: 200.0 mg/kg/injection, schedule: Q01DX009 (ip), vehicle: saline) was 101 % of control and the T/C (endpoint: mean survival time, dose: 400.0 mg/kg/injection, schedule: Q01DX009 (ip), vehicle: saline) was 110 % of control.
`CC(=O)OCC1OC([Se][As](C)C)C(OC(C)=O)C(OC(C)=O)C1OC(C)=O` (stereo unspecified) was tested, and the T/C (endpoint: mean survival time, dose: 3.13 mg/kg/injection, schedule: Q01DX009 (ip), vehicle: saline with Tween-80) was 98 % of control, the T/C (endpoint: mean survival time, dose: 6.25 mg/kg/injection, schedule: Q01DX001 (ip), vehicle: saline with Tween-80) was 95 % of control and the T/C (endpoint: mean survival time, dose: 6.25 mg/kg/injection, schedule: Q01DX009 (ip), vehicle: saline with Tween-80) was 96 % of control. For the same molecule, the T/C (endpoint: mean survival time, dose: 12.5 mg/kg/injection, schedule: Q01DX001 (ip), vehicle: saline with Tween-80) was 97 % of control and the T/C (endpoint: mean survival time, dose: 12.5 mg/kg/injection, schedule: Q01DX009 (ip), vehicle: saline with Tween-80) was 96 % of control.
`O=[N+]([O-])C1C2C=CC(C2)C1c1ccccc1` (stereo unspecified) was tested, and the T/C [1] was 102 % of control, the T/C [5] was 98 % of control and the T/C [2] was 95 % of control. The T/C [6] was 102 % of control, the T/C (endpoint: mean survival time, dose: 400.0 mg/kg/injection, schedule: Q01DX009 (ip), vehicle: saline with Tween-80) was 98 % of control and the T/C [7] was 102 % of control.
In the case of `OCC1OC(n2ncc3c(NO)ncnc32)C(O)C1O` (stereo unspecified), the T/C (endpoint: mean survival time, dose: 1.56 mg/kg/injection, schedule: Q01DX005 (ip), vehicle: water) is reported as 103 % of control, the T/C (endpoint: mean survival time, dose: 3.13 mg/kg/injection, schedule: Q01DX005 (ip), vehicle: water) is reported as 107 % of control and the T/C (endpoint: mean survival time, dose: 6.25 mg/kg/injection, schedule: Q01DX005 (ip), vehicle: water) is reported as 103 % of control. For the same molecule, the T/C [3] was 114 % of control and the T/C [4] was 88 % of control.
In the case of `OC(c1c(F)c(F)c(C(O)(C(F)(F)F)C(F)(F)F)c(F)c1F)(C(F)(F)F)C(F)(F)F`, the T/C [5] is reported as 96 % of control, the T/C [6] is reported as 104 % of control and the T/C [7] is reported as 96 % of control.
In the case of `COC(=O)c1cc(C)ccc1O`, the T/C [1] is reported as 96 % of control, the T/C [5] is reported as 90 % of control and the T/C [2] is reported as 101 % of control. For the same molecule, the T/C [6] was 93 % of control and the T/C [7] was 100 % of control.
For `CCCCCCCCCCC(=O)CC`, the T/C [5] was 100 % of control, the T/C [6] was 102 % of control and the T/C [7] was 98 % of control.
`Nc1ncnc2c1ncn2C1OC(CO)C(NC(=O)C(N)Cc2ccccc2)C1O` (stereo unspecified) was tested, and the T/C (endpoint: mean survival time, dose: 100.0 mg/kg/injection, schedule: Q01DX001 (ip), vehicle: saline) was 94 % of control, the T/C (endpoint: mean survival time, dose: 200.0 mg/kg/injection, schedule: Q01DX001 (ip), vehicle: saline) was 92 % of control and the T/C (endpoint: mean survival time, dose: 400.0 mg/kg/injection, schedule: Q01DX001 (ip), vehicle: saline) was 91 % of control.
In the case of `CCCC(C)C1=NC(C)(C)CCO1` (stereo unspecified), the T/C (endpoint: mean survival time, dose: 12.5 mg/kg/injection, schedule: Q04DX002 (ip), vehicle: saline) is reported as 96 % of control, the T/C (endpoint: mean survival time, dose: 25.0 mg/kg/injection, schedule: Q04DX002 (ip), vehicle: saline) is reported as 101 % of control and the T/C (endpoint: mean survival time, dose: 50.0 mg/kg/injection, schedule: Q04DX002 (ip), vehicle: saline) is reported as 93 % of control.
With `Cc1cccc(C(=O)C(=O)c2cccc(C)c2C)c1C` the T/C (endpoint: mean survival time, dose: 75.0 mg/kg/injection, schedule: Q01DX001 (ip), vehicle: other) was 93 % of control, the T/C (endpoint: mean survival time, dose: 150.0 mg/kg/injection, schedule: Q01DX001 (ip), vehicle: other) was 93 % of control and the T/C (endpoint: mean survival time, dose: 300.0 mg/kg/injection, schedule: Q01DX001 (ip), vehicle: other) was 100 % of control.
`C=CC#N` was tested, and the T/C (endpoint: mean survival time, dose: 12.5 mg/kg/injection, schedule: Q04DX003 (ip), vehicle: saline with Tween-80) was 105 % of control, the T/C (endpoint: mean survival time, dose: 25.0 mg/kg/injection, schedule: Q04DX003 (ip), vehicle: saline with Tween-80) was 102 % of control and the T/C (endpoint: mean survival time, dose: 50.0 mg/kg/injection, schedule: Q04DX003 (ip), vehicle: saline with Tween-80) was 108 % of control.
With `CSC(N)=Nc1ccc(C(=O)O)cc1` the T/C [5] was 100 % of control, the T/C [6] was 94 % of control and the T/C [7] was 94 % of control.
For `N=C(N)[Se]`, the T/C [5] was 95 % of control, the T/C [6] was 101 % of control and the T/C [7] was 95 % of control.
